According to patent US9605013B2, “Derivatives of hemin with antibacterial and antiviral activity” (OBSCHESTVO S OGRANICHENNOI OTVETSTVENNOSTIYU …, priority 2011, dated 2017):

Key:
[1] = system: Enterococcus faecalis No. 559; assay: Antibacterial specific activity, twofold dilutions, visual growth evaluation; format: cell-based; conditions: E. faecalis 559; 36° C., 24 hours
Method in brief: (§1)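 Growth was assessed by eye relative to untreated culture wells after 24 h incubation at 36° C. Each test well held bacteria at 5×10^5 CFU/ml plus a twofold-diluted compound; the MIC is the final dilution still suppressing growth.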

Escherichia coli 4300 = assay: as above; format: cell-based; conditions: E. coli 4300; 36° C., 24 hours
[2] = system: Staphylococcus aureus No. 100 KC; assay: as above; format: cell-based; conditions: S. aureus 100 KC; 36° C., 24 hours
Method in brief: as §1

[3] = system: Staphylococcus aureus No. 25923 ATCC; assay: as above; format: cell-based; conditions: S. aureus 25923; 36° C., 24 hours
Method in brief: as §1

[4] = system: Staphylococcus aureus No. 3797 (MRSA); assay: as above; format: cell-based; conditions: St. aur No. 3797 MRSA; 36° C., 24 hours
Method in brief: as §1

[5] = system: Staphylococcus aureus No. 5 (MRSA); assay: as above; format: cell-based; conditions: St. aur No. 5 MRSA; 36° C., 24 hours
Method in brief: as §1

[6] = system: Staphylococcus epidermidis No. 533; assay: as above; format: cell-based; conditions: S. epidermis 533; 36° C., 24 hours
Method in brief: as §1

[7] = system: Vancomycin-resistant Enterococcus faecium 569; assay: as above; format: cell-based; conditions: Vancomycin-resistant E. faecium 569; 36° C., 24 hours
Method in brief: as §1

| Molecule | MIC [1] [µM] | MIC (Escherichia coli 4300) [µM] | MIC [2] [µM] | MIC [3] [µM] | MIC [4] [µM] | MIC [5] [µM] | MIC [6] [µM] | MIC [7] [µM] | water solubility (Water solubility) |
| --- | --- | --- | --- | --- | --- | --- | --- | --- | --- |
| 6,7-bis-(Amide N^α-Glycyl)-Protohemin (IX) [IV] | 0.39 | >50.0 | 0.39 | 0.39 | 3.12 | 3.12 | 1.56 | 50 | water-insoluble |
| 6,7-bis-[(Diamide N^α-L-Arginyl)-L-glutamyl]-Protohemin (IX) | 3.12 | 16.6 | 0.78 | 1.56 |  |  | 0.78 | 6.25 | water-soluble |
| C=CC1=C(C)c2cc3[n-]c(cc4[n-]c(cc5nc(cc1n2)C(C)=C5C=C)c(C)c4CCC(=O)N[C@@H](CCCNC(=N)N)C(N)=O)c(CCC(=O)N[C@@H](CCCNC(=N)N)C(N)=O)c3C.[Cl-].[Fe+3] [II, 6,7-bis-(Amide N^α-Arginyl)-Protohemin (IX)] | 1.3 | 41.6 | 2.6 | 1.04 | 50 | 41 | 0.39 | 3.12 | water-soluble |
| C=CC1=C(C)c2cc3[n-]c(cc4[n-]c(cc5nc(cc1n2)C(C)=C5C=C)c(C)c4CCC(=O)N[C@@H](CO)C(N)=O)c(CCC(=O)N[C@@H](CO)C(N)=O)c3C.[Cl-].[Fe+3] [V, 6,7-bis-(Amide N^α-Seryl)-Protohemin (IX)] | 25 | >50.0 | 0.52 | 0.78 | 1.56 | 1.56 | 1.56 | 25 | water-insoluble |
| C=CC1=C(C)c2cc3[n-]c(cc4[n-]c(cc5nc(cc1n2)C(C)=C5C=C)c(C)c4CCC(=O)N[C@@H](CO)C(=O)O)c(CCC(=O)N[C@@H](CO)C(=O)O)c3C.[Cl-].[Fe+3] [VI, 6,7-bis-(N^α-Seryl]-Protohemin (IX)] | >50.0 | >50.0 | 5.21 | 12.5 | 0.78 | 0.78 | 3.12 | >50.0 |  |
